Literature values as cited in patent publication US10426724B2, “Antihistamine compositions, combinations, and use thereof” (APTAPHARMA INC., priority 2016, dated 2019).

Target: histamine H1-receptors (Homo sapiens, UniProt P35367)
Conditions: from time of administration to symptomatic relief; Annals of Allergy, Asthma, & Immunology (1997), 79

Chain of histamine H1-receptors (P35367 whole entry): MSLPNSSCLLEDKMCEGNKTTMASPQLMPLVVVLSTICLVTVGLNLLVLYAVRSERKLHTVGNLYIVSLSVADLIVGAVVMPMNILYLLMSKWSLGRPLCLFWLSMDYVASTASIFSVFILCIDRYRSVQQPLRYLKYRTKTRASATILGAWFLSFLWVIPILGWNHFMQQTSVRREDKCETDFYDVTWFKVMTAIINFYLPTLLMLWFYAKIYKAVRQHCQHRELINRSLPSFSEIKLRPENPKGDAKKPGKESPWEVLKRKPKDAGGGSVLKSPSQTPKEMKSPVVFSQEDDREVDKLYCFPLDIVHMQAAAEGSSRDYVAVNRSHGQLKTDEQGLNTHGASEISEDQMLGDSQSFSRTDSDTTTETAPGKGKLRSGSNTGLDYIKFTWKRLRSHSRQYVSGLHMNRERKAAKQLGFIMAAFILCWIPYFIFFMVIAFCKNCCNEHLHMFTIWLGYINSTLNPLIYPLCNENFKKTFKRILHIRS

Structure (SMILES): O=C(O)COCCN1CCN(C(c2ccccc2)c2ccc(Cl)cc2)CC1 (stereo not shown) [cetirizine]
- lag time before onset of action: several hours
